From patent US11697650B2, “Compounds having tetrahydroindolizine-1-carboxamide as BCL-2 inhibitors” (Eil Therapeutics, Inc., priority 2021, dated 2023)

Columns and labels:
[1] = test system: RS4-11 cells; experiment: Cell viability assay (CellTiter-Glo), RS4-11; assay type: cell-based; conditions: Homo sapiens, 72 h, 3 days, read-out: RS4-11 (CC50 code)
Protocol: (§1) Culture medium for HEK293—DMEM (PanEco, Cat #C420) was used. RPMI-1640 (PanEco, Cat #C363) was used for the rest of the cell lines.
(§2) Compounds were prepared as 200× stocks with serial dilution in 100% DMSO with a final concentration of 1×.
(§3) […] were dispersed in 40 μL aliquots in 384-well plates at a concentration of 2000 cells per well for HEK293 and at a concentration of 4000 cells per well for the rest of the cell lines using a robotic station Biomek (Beckman). Before adding compounds, the cells were incubated at 37° C. (HEK293 were incubated for a day before adding compounds).
(§4) A dilution plate was prepared by pouring 78 μL of the appropriate culture medium using a robotic station Biomek (Beckman). Sequentially, using a robotic station, 2 μL of substances were taken and added to 78 μL of culture medium (dilution of compounds 40×). 10 μL aliquots were taken and added to the plates of the cells (dilution of compounds 5×). The plates were incubated for 3 days at a temperature 37° C. After 3 days, 10 μL of CellTiter-Glo (Promega) was added to the cells and the luminescence was measured.

[2] = test system: MOLT-4 cells; experiment: Cell viability assay (CellTiter-Glo), MOLT-4; assay type: cell-based; conditions: Homo sapiens, 72 h, 3 days, read-out: MOLT-4 (CC50 code)
Protocol: as §1, §2, §3, §4

[3] = Cell viability assay (CellTiter-Glo), HEK293; assay type: cell-based; conditions: human, HEK293 cells, read-out: HEK293 (CC50 code)
Protocol: as §1, §2, §3, §4

[4] = test system: caspase-3 and -7 activities in RS4-11 cells; experiment: Caspase-3/7 activation (Caspase-Glo 3/7) in RS4-11 cells; assay type: cell-based; conditions: Homo sapiens, 3.5 h incubation, read-out: Cas-3/7 (EC50 code)
Protocol: The Caspase-Glo 3/7 Assay is homogeneous, luminescent assay that measures caspase-3 and -7 activities. The assay provides a luminogenic caspase-3/7 substrate, which contains the tetrapeptide sequence DEVD, in a reagent optimized for caspase activity.
Incubate RS4-11 cells with varying concentrations of test compounds for 3.5 h in a humidified incubator at 37° C. and 5% CO2 and 30 min at r.t. Add 15 μl Caspase-Glo reagent to each well and incubate the plate for 30 min at r.t. Read on ClarioStar Plus instrument.
Promega Caspase-Glo (Promega, #8212); Frozen RS4-11 cells; 384-well white plate (Corning, #3570).
ClarioStar Plus; Biomek FX for liquid handling (Beckman Coulter).

[5] = molecular target: BCL-2 (Homo sapiens (Human), UniProt P10415); experiment: BCL-2 TR-FRET Assay (primary PPI inhibition); assay type: binding; conditions: 60 min incubation; read-out: BCL2 (IC50 code, BCL-2 TR-FRET)
Protocol: BCL-2 TR-FRET Assay (BPS Bioscience, #50222)
(§5) The following assay concentrations and times were used: 3 ng BCL-2, 5 μl of 1:100 anti-His Tb-labeled donor, 5 μl of 1:100 Dye-labeled acceptor, 5 μl of 1:40 BCL-2 Peptide Ligand, and 2 ul of test compound, with 60 min incubation time. The results of the assay were read using a Clariostar (BMG Labtech) plate reader with the following parameters: TR FRET, 340ex/620 and 665em; 60 μsec Delay; and 500 μsec integration.

[6] = molecular target: BCL-XL (Homo sapiens (Human), UniProt Q07817); experiment: BCL-XL TR-FRET Assay (primary PPI inhibition); assay type: binding; conditions: 60 min incubation; read-out: BCLxL (IC50 code, BCL-XL TR-FRET)
Protocol: BCL-XL TR-FRET Assay (BPS Bioscience, #50223)
as §5, with “used: 10.5” for “used: 3”, “ng BCL-XL,” for “ng BCL-2,”, “of 1:80 BCL-XL” for “of 1:40 BCL-2”, “2 μl” for “2 ul”

Sequence of BCL-2 (P10415 whole entry): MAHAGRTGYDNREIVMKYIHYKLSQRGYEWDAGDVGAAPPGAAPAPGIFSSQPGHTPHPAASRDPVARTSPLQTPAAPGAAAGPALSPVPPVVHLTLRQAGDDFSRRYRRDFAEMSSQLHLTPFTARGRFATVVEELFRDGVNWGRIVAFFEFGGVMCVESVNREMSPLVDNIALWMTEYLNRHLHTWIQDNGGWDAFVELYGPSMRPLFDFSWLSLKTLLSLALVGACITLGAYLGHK
Sequence of BCL-XL (Q07817 whole entry): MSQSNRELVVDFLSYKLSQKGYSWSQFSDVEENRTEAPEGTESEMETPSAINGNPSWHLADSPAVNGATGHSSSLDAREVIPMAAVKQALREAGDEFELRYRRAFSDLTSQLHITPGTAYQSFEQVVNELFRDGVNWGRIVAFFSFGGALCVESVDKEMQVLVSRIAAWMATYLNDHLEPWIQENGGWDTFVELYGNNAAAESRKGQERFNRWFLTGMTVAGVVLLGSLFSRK

Row | SMILES | CC50 [1] | CC50 [2] | CC50 at 3 days [3] | EC50 [4] | IC50 [5] | IC50 [6]
1 | O=C(c1cc(-c2cc3c(cc2C(=O)N2Cc4ccccc4C[C@H]2CN2CCOCC2)OCO3)n2c1CCCC2)N(Cc1ccccc1F)c1ccc(O)cc1 [Compound 11, N-(2-fluorobenzyl)-N-(4-hydroxyphenyl)-3-(6-{[(3S)-3-(morpholin-4-ylmethyl)-3,4-dihydroisoquinolin-2(1H)-yl]carbonyl}-1,3-benzodioxol-5-yl)-5,6,7,8-tetrahydroindolizine-1-carboxamide] | ≤ 100 nM | > 10 µM | 10 to 25 µM | ≤ 100 nM | – | –
2 | O=C(c1cc(-c2cc3c(cc2C(=O)N2Cc4ccccc4C[C@H]2CN2CCOCC2)OCO3)n2c1CCCC2)N(Cc1ccc(F)cc1)c1ccc(O)cc1 [Compound 17, N-(4-fluorobenzyl)-N-(4-hydroxyphenyl)-3-(6-{[(3S)-3-(morpholin-4-ylmethyl)-3,4-dihydroisoquinolin-2(1H)-yl]carbonyl}-1,3-benzodioxol-5-yl)-5,6,7,8-tetrahydroindolizine-1-carboxamide] | > 200 nM | > 10 µM | > 25 µM | > 250 nM | 10 to 50 nM | –
3 | O=C(c1cc(-c2cc3c(cc2C(=O)N2Cc4ccccc4C[C@H]2CN2CCOCC2)OCO3)n2c1CCCC2)N(Cc1c(F)cccc1C(F)(F)F)c1ccc(O)cc1 [Compound 22, N-[2-fluoro-6-(trifluoromethyl)benzyl]-N-(4-hydroxyphenyl)-3-(6-{[(3S)-3-(morpholin-4-ylmethyl)-3,4-dihydroisoquinolin-2(1H)-yl]carbonyl}-1,3-benzodioxol-5-yl)-5,6,7,8-tetrahydroindolizine-1-carboxamide] | – | – | – | – | > 50 nM | > 4 µM
4 | O=C(c1cc(-c2cc3c(cc2C(=O)N2Cc4ccccc4C[C@H]2CN2CCOCC2)OCO3)n2c1CCCC2)N(Cc1ccc(OC(F)(F)F)cc1)c1ccc(O)cc1 [Compound 26, N-(4-hydroxyphenyl)-3-(6-{[(3S)-3-(morpholin-4-ylmethyl)-3,4-dihydroisoquinolin-2(1H)-yl]carbonyl}-1,3-benzodioxol-5-yl)-N-[4-(trifluoromethoxy)benzyl]-5,6,7,8-tetrahydroindolizine-1-carboxamide] | – | – | – | – | > 50 nM | > 4 µM
5 | CCOc1ccc(-c2nc(CN(C(=O)c3cc(-c4cc5c(cc4C(=O)N4Cc6ccccc6C[C@H]4CN4CCOCC4)OCO5)n4c3CCCC4)c3ccc(O)cc3)c(C)o2)cc1 [Compound 27, N-{[2-(4-ethoxyphenyl)-5-methyl-1,3-oxazol-4-yl]methyl}-N-(4-hydroxyphenyl)-3-(6-{[(3S)-3-(morpholin-4-ylmethyl)-3,4-dihydroisoquinolin-2(1H)-yl]carbonyl}-1,3-benzodioxol-5-yl)-5,6,7,8-tetrahydroindolizine-1-carboxamide] | – | – | – | – | > 50 nM | > 4 µM
6 | Cc1cccc(C)c1CN(C(=O)c1cc(-c2cc3c(cc2C(=O)N2Cc4ccccc4C[C@H]2CN2CCOCC2)OCO3)n2c1CCCC2)c1ccc(O)cc1 [Compound 30, N-(2,6-dimethylbenzyl)-N-(4-hydroxyphenyl)-3-(6-{[(3S)-3-(morpholin-4-ylmethyl)-3,4-dihydroisoquinolin-2(1H)-yl]carbonyl}-1,3-benzodioxol-5-yl)-5,6,7,8-tetrahydroindolizine-1-carboxamide] | – | – | – | – | > 50 nM | –
7 | Cc1cccc(F)c1CN(C(=O)c1cc(-c2cc3c(cc2C(=O)N2Cc4ccccc4C[C@H]2CN2CCOCC2)OCO3)n2c1CCCC2)c1ccc(O)cc1 [Compound 32, N-(2-fluoro-6-methylbenzyl)-N-(4-hydroxyphenyl)-3-(6-{[(3S)-3-(morpholin-4-ylmethyl)-3,4-dihydroisoquinolin-2(1H)-yl]carbonyl}-1,3-benzodioxol-5-yl)-5,6,7,8-tetrahydroindolizine-1-carboxamide] | – | – | – | – | 10 to 50 nM | –
8 | Cc1ccc(C(F)(F)F)cc1CN(C(=O)c1cc(-c2cc3c(cc2C(=O)N2Cc4ccccc4C[C@H]2CN2CCOCC2)OCO3)n2c1CCCC2)c1ccc(O)cc1 [Compound 38, N-(4-hydroxyphenyl)-N-[2-methyl-5-(trifluoromethyl)benzyl]-3-(6-{[(3S)-3-(morpholin-4-ylmethyl)-3,4-dihydroisoquinolin-2(1H)-yl]carbonyl}-1,3-benzodioxol-5-yl)-5,6,7,8-tetrahydroindolizine-1-carboxamide] | – | – | – | – | 10 to 50 nM | –
9 | O=C(c1cc(-c2cc3c(cc2C(=O)N2Cc4ccccc4C[C@H]2CN2CCOCC2)OCO3)n2c1CCCC2)N(Cc1cccnc1)c1ccc(O)cc1 [Compound 39, N-(4-hydroxyphenyl)-3-(6-{[(3S)-3-(morpholin-4-ylmethyl)-3,4-dihydroisoquinolin-2(1H)-yl]carbonyl}-1,3-benzodioxol-5-yl)-N-(pyridin-3-ylmethyl)-5,6,7,8-tetrahydroindolizine-1-carboxamide] | > 200 nM | ≤ 2 µM | 10 to 25 µM | – | 5 to 10 nM | 2 to 4 µM
10 | CS(=O)(=O)NC(=O)c1cccc(CN(C(=O)c2cc(-c3cc4c(cc3C(=O)N3Cc5ccccc5C[C@H]3CN3CCOCC3)OCO4)n3c2CCCC3)c2ccc(O)cc2)c1 [Compound 43, N-(4-hydroxyphenyl)-N-{3-[(methylsulfonyl)carbamoyl]benzyl}-3-(6-{[(3S)-3-(morpholin-4-ylmethyl)-3,4-dihydroisoquinolin-2(1H)-yl]carbonyl}-1,3-benzodioxol-5-yl)-5,6,7,8-tetrahydroindolizine-1-carboxamide] | – | – | – | – | 5 to 10 nM | 2 to 4 µM
11 | O=C(O)c1cccc(CN(C(=O)c2cc(-c3cc4c(cc3C(=O)N3Cc5ccccc5C[C@H]3CN3CCOCC3)OCO4)n3c2CCCC3)c2ccc(O)cc2)c1 [Compound 45, 3-[(4-Hydroxy-N-[3-[6-[(3S)-3-(morpholinomethyl)-3,4-dihydro-1H-isoquinoline-2-carbonyl]-1,3-benzodioxol-5-yl]-5,6,7,8-tetrahydroindolizine-1-carbonyl]anilino)methyl]benzoic Acid] | > 200 nM | > 10 µM | > 25 µM | – | 10 to 50 nM | 2 to 4 µM
12 | CC(C)(C)OC(=O)c1cccc(CN(C(=O)c2cc(-c3cc4c(cc3C(=O)N3Cc5ccccc5C[C@H]3CN3CCOCC3)OCO4)n3c2CCCC3)c2ccc(O)cc2)c1 [Compound 46, tert-Butyl 3-[(4-hydroxy-N-[3-[6-[(3S)-3-(morpholinomethyl)-3,4-dihydro-1H-isoquinoline-2-carbonyl]-1,3-benzodioxol-5-yl]-5,6,7,8-tetrahydroindolizine-1-carbonyl]anilino)methyl]benzoate] | – | – | – | – | 10 to 50 nM | –
13 | N#Cc1ccccc1CN(C(=O)c1cc(-c2cc3c(cc2C(=O)N2Cc4ccccc4C[C@H]2CN2CCOCC2)OCO3)n2c1CCCC2)c1ccc(O)cc1 [Compound 47, N-[(2-Cyanophenyl)methyl]-N-(4-hydroxyphenyl)-3-[6-[(3S)-3-(morpholinomethyl)-3,4-dihydro-1H-isoquinoline-2-carbonyl]-1,3-benzodioxol-5-yl]-5,6,7,8-tetrahydroindolizine-1-carboxamide] | – | – | – | – | > 50 nM | –
14 | O=C(c1cc(-c2cc3c(cc2C(=O)N2Cc4ccccc4C[C@H]2CN2CCOCC2)OCO3)n2c1CCCC2)N(Cc1cccc([N+](=O)[O-])c1)c1ccc(O)cc1 [Compound 49, N-(4-Hydroxyphenyl)-3-[6-[(3S)-3-(morpholinomethyl)-3,4-dihydro-1H-isoquinoline-2-carbonyl]-1,3-benzodioxol-5-yl]-N-[(3-nitrophenyl)methyl]-5,6,7,8-tetrahydroindolizine-1-carboxamide] | > 200 nM | > 10 µM | > 25 µM | – | > 50 nM | > 4 µM
